Tested on: DLD-1 BRCA2(−/−) Cell
Assay: Cell viability assay (Resazurin) in DLD1-BRCA2 cells
Format: cell-based
Conditions: 14 days, 1,500 cells/well, final DMSO 1%
How it was run: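 DLD1-BRCA2 KG cells seeded at 1,500/well (parental 600/well) in RPMI-1640 with 10% FBS, compound added after 4 h (1% DMSO), media replaced every 3-4 days over 14 days at 37° C. Viability read by resazurin (0.1 mg/ml, 4 h) fluorescence at Ex/Em 560/590 nm; IC50 fitted.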

Q: How did the IC50 turn out when “(S)-N-(3-(6-aminopyridazin-3-yl)prop-2-yn-1- yl)-2-(6-methyl-4-(trifluoromethyl)pyridin-2- yl)-N-(m-tolyl)isothiazolidine-3-carboxamide 1,1-dioxide [Example 19]” was run?
A: Its IC50 is 1100 to 5000 nM.

Same assay, conditions: Homo sapiens, DLD-1, 336 h, 14 days, 1,500 cells/well, final DMSO 1%

Q: How did the IC50 turn out when `Cc1cc(C(F)(F)F)cc(N2[C@H](C(=O)N(CC#Cc3ccc(N)nn3)c3ccc(F)c(C)c3)CN(C(C)C)S2(=O)=O)n1` [Example 110, (S)-N-(3-(6-aminopyridazin-3-yl)prop-2-yn-1-yl)-N-(4-fluoro-3-methylphenyl)-5-isopropyl-2-(6-methyl-4-(trifluoromethyl)pyridin-2-yl)-1,2,5-thiadiazolidine-3-carboxamide 1,1-dioxide] was run?
A: The IC50 was 1100 to 5000 nM.

Q: How did the IC50 turn out when `Cc1cc(C(F)(F)F)cc(N2[C@H](C(=O)N(CC#Cc3ccc(C(=O)N(C)C)nc3)c3ccc(F)c(C)c3)CCS2(=O)=O)n1` [Example 111, (S)-N-(3-(6-(dimethylcarbamoyl)pyridin-3-yl)prop-2-yn-1-yl)-N-(4-fluoro-3-methylphenyl)-2-(6-methyl-4-(trifluoromethyl)pyridin-2-yl)isothiazolidine-3-carboxamide 1,1-dioxide] was run?
A: Its IC50 is < 1000 nM.

Q: For `Cc1cc(C(F)(F)F)cc(N2[C@H](C(=O)N(CC#Cc3ccc(C#N)nc3)c3ccc(F)c(C)c3)CCS2(=O)=O)n1` [Example 115, (S)-N-(3-(6-cyanopyridin-3-yl)prop-2-yn-1-yl)-N-(4-fluoro-3-methylphenyl)-2-(6-methyl-4-(trifluoromethyl)pyridin-2-yl)isothiazolidine-3-carboxamide 1,1-dioxide], which IC50 is on record?
A: The IC50 was < 1000 nM.

Q: Which IC50 does the source give for `Cc1cc(C(F)(F)F)cc(N2[C@H](C(=O)N(CC#Cc3ccc(-c4ncon4)nc3)c3ccc(F)c(C)c3)CCS2(=O)=O)n1` [Example 116, (S)-N-(3-(6-(1,2,4-oxadiazol-3-yl)pyridin-3-vl)prop-2-yn-1-yl)-N-(4-fluoro-3-methylphenyl)-2-(6-methyl-4-(trifluoromethyl)pyridin-2-yl)isothiazolidine-3-carboxamide 1,1-dioxide] here?
A: Its IC50 is < 1000 nM.

Q: Which IC50 does the source give for `Cc1cc(C(F)(F)F)cc(N2[C@H](C(=O)N(CC#Cc3ccc(C(N)=O)nc3C)c3ccc(F)c(C)c3)CCS2(=O)=O)n1` [Example 117, (S)-N-(3-(6-carbamoyl-2-methylpyridin-3-yl)prop-2-yn-1-yl)-N-(4-fluoro-3-methylphenyl)-2-(6-methyl-4-(trifluoromethyl)pyridin-2-yl)isothiazolidine-3-carboxamide 1,1-dioxide] here?
A: The IC50 was < 1000 nM.

Reference: patent publication US20260297083A1, “SUBSTITUTED ACETYLENE COMPOUND DERIVATIVES AND THEIR PHARMACEUTICAL USE” (AVELOS THERAPEUTICS INC., priority 2023, published 2026)
